Results taken from PMC8156151 (The European Respiratory Journal, 2021).
Where two headings read alike, the source gives them in different places.

Tests used:
[1] = biological target: Gal-3 (Homo sapiens, UniProt P17931); conditions: for Galectin-3 (BAL) raw data, Mean (SD): Day 14
Protocol: (§1) All patients, investigators, sites and study sponsor personnel were blinded to the study group assignments throughout the study. Patients underwent study-specific assessments on days 2, 3, 7, 14 and 15, and a post-study assessment was carried out 26–30 days after the last day of the study period. Assessments included vital signs (supine blood pressure, pulse, oxygen saturation, oral temperature and respiratory rate), spirometry, 12-lead ECG, physical examination, laboratory safety screen (haematology, biochemistry, urinalysis and urinary drugs of abuse screen) and blood sampling for PK measurements. All adverse events and concomitant medications were recorded from the time of the screening visit until the post-study follow-up visit. BAL was performed at day −1 (24 h before the first dose) and at day 14 (2 h after the last dose). The BAL procedure was performed as per international guidelines. Briefly, 240 mL of 0.9% saline at room temperature was instilled in 40 mL aliquots into the right middle lobe and aspirated by suction after each aliquot.
(§2) BAL cells were separated from fluid by centrifugation, and cells were collected, stained with antibodies (supplementary material) and then fixed before analysis using a LSR Fortessa flow cytometer (Becton Dickinson, Franklin Lakes, NJ, USA). Data were analysed using FlowJo software (Tree Star, Ashland, OR, USA). Macrophages were identified as having high side scatter properties and human leukocyte antigen-DR positivity. Gal-3 expression (mean fluorescence intensity) was determined from the macrophage gate (supplementary figures S1 and S2). […] Samples were analysed by magnetic Luminex assay (R&D Systems, Minneapolis, MN, USA) or ELISA.
(§3) For part 2 of the study, placebos were combined from the three dose-specific cohorts into a pooled control group (n=9). For alveolar macrophage Gal-3 expression and the plasma biomarkers, ANCOVA was performed for percentage of baseline ((day 14/day 1)×100). The ANCOVA model included effects for treatment group and baseline (day 1) value. […] An additional analysis including dose as a continuous covariate was also performed. The Pearson correlation coefficient (r) and associated p-value were calculated for percentage of baseline and day 14 values between plasma biomarkers and alveolar macrophage Gal-3 expression. […] The analysis is exploratory and there was no pre-planned adjustment for multiple testing; the study was not powered for this. Alveolar macrophage Gal-3 expression was considered the primary exploratory analysis with the pre-selected biomarkers secondary. A Bonferroni correction for multiple testing of the secondary end-points comparing the 10 mg group with placebo gives a critical value of 0.0063. Data are presented as the difference in least square means with 95% confidence interval and p-value unless otherwise stated. All analyses were performed using SAS version 9.4 (SAS Institute, Cary, NC, USA).
BAL cells were separated from fluid by centrifugation and BAL cells were collected, stained with antibodies then fixed before analysis using a LSRFortessa™ flow cytometer (Becton Dickinson, NJ, USA). Data were analysed using FlowJo software (Becton Dickinson, NJ, USA). After exclusion of doublets and debris a sequential gating strategy was employed to identify cell populations based on surface marker expression. The antibodies used were Gal-3-FITC, CD19-PE, HLA-DR PEcy7, CD14-APC, CD16-pacific-blue, CD11b perCPcy5.5, […]
Biolegend except Gal-3-FITC which was from Cedarlane. Macrophages were identified as having high side scatter properties and HLA-DR positivity. Gal-3 expression (mean fluorescence intensity, MFI) was determined from the macrophage gate. Macrophage subsets were classed as M1, M2a and M2c based on the relative expression of CD206 and CD163 as […]
ve gate the relative % of neutrophils (CD19-/CD16+), B cells (CD19+), natural killer (NK) cells (CD56+), NK T-cells (NKT) cells (CD56+/CD3+), CD4 T cells (CD3+/CD4+) and CD8 T cells

[2] = tested on: BAL cells; test: BAL cell classification and quantification (flow cytometry); assay type: in vivo, human; conditions: any dose groups
Protocol: Dickinson, NJ, USA). Data were analysed using FlowJo software (Becton Dickinson, NJ, […]
identify cell populations based on surface marker expression. The antibodies used were Gal-3- […]
Biolegend except Gal-3-FITC which was from Cedarlane. Macrophages were identified as having high side scatter properties and HLA-DR positivity. Gal-3 expression (mean fluorescence intensity, MFI) was determined from the macrophage gate. Macrophage subsets […]
Plasma pharmacodynamic biomarkers
Secreted], CCL18 [pulmonary and activation-regulated chemokine], CCL26 [eotaxin], […]
A disease relevance score was
(supplementary table S2).
BAL cell classification and quantification
CD163 and CD206 expression (supplemental figure S2). […]
following treatment with TD139 in the high dose group.

[3] = tested on: PTX3; test: Plasma biomarker PTX3; assay type: in vivo, human; conditions: for Pentraxin-3 (PTX3) raw data, Mean (SD) / PTX3 least square means % baseline±SEM: IPF patients
Protocol: as §1, §2
as §3, with “USA). […]” for “USA).”

[4] = tested on: IL-13; test: Plasma biomarker IL-13; assay type: in vivo, human; conditions: for IL-13 raw data, Mean (SD) / IL-13 least square means % baseline±SEM: IPF patients
Protocol: as §1, §2
as §3, with “USA). […]” for “USA).”

[5] = tested on: MMP-8; test: Plasma biomarker MMP-8; assay type: in vivo, human; conditions: for MMP-8 raw data, Mean (SD) / MMP-8 least square means % baseline±SEM: IPF patients
Protocol: as §1, §2
as §3, with “USA). […]” for “USA).”

Chain of Gal-3 (P17931 whole entry): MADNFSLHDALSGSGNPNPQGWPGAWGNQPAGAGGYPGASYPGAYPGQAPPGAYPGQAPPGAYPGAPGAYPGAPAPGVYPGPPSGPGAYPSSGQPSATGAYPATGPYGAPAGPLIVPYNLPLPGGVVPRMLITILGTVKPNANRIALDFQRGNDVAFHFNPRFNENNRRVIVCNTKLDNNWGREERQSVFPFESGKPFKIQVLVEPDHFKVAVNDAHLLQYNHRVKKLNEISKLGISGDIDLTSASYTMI

For `OC[C@H]1O[C@@H](S[C@@H]2O[C@H](CO)[C@H](O)[C@H](n3cc(-c4cccc(F)c4)nn3)[C@H]2O)[C@H](O)[C@@H](n2cc(-c3cccc(F)c3)nn2)[C@H]1O` [TD139], the “Gal-3 expression on BAL macrophages, percentage of baseline at day 14, difference compared with placebo” value ([1]; 3 mg dose group) was −38.66%, the “Gal-3 expression on BAL macrophages, percentage of baseline at day 14, difference compared with placebo” value ([1]; 10 mg dose group) was −44.63% and the “Gal-3 (BAL) Bayesian probability of effect” value ([1]; BAL macrophages, 10 mg vs placebo) was 99.14. For the same compound, the “Gal-3 (BAL) difference in least square means % baseline (95% CI)” value ([1]; BAL macrophages, 10 mg vs placebo, ANCOVA) was −44.6 (−80.4– −8.8) % baseline, the “Galectin-3 (BAL) raw data, Mean (SD)” value ([1]; IPF patients, BAL macrophages, 0.3 mg) was 7794.8 (2990.48) pg/ml and the “Galectin-3 (BAL) raw data, Mean (SD)” value ([1]; IPF patients, BAL macrophages, 3 mg) was 8058.6 (3001.05) pg/ml. For the same compound, the “Galectin-3 (BAL) raw data, Mean (SD)” value ([1]; IPF patients, BAL macrophages, 10 mg) was 5237 (2033.86) pg/ml, the “Gal-3 (BAL) least square means % baseline±SEM” value ([1]; IPF patients, BAL macrophages, day 14, 0.3 mg once daily) was 67.9±12.1 % baseline and the “Gal-3 (BAL) least square means % baseline±SEM” value ([1]; IPF patients, BAL macrophages, day 14, 3 mg once daily) was 43.0±11.7 % baseline. For the same compound, the “Gal-3 (BAL) least square means % baseline±SEM” value ([1]; IPF patients, BAL macrophages, day 14, 10 mg once daily) was 37.1±13.5 % baseline, the “Galectin-3 (BAL), analysis including dose as a continuous covariate: Estimate” value ([1]; IPF patients, BAL macrophages, percentage of baseline) was -4.19 and the “correlation between TD139 in AMs and percentage of baseline in surface macrophage Gal-3 (r)” value ([1]; IPF patients, day 14) was −0.63 (95% CI −0.86– −0.18). The “Emax (AM surface Gal-3 percentage of baseline)” value ([1]; fitted maximum effect model vs macrophage TD139 concentration, (95% CI)) was 4.5 (−44.0–35.9), the “abundance or frequencies of CD4+ or CD8+ T cells, Tregs, NK, NKT, B cells, neutrophils or monocytes in BAL” value [2] was “no change in the abundance or frequencies” and the “PTX3 difference in least square means % baseline (95% CI)” value ([3]; 10 mg vs placebo, ANCOVA) was −69.6 (−220.3–81.2) % baseline. The “Pentraxin-3 (PTX3) raw data, Mean (SD)” value ([3]; Day 14, 0.3 mg) was 116.3 (214.7) pg/ml, the “Pentraxin-3 (PTX3) raw data, Mean (SD)” value ([3]; Day 14, 3 mg) was 629.9 (581.55) pg/ml and the “Pentraxin-3 (PTX3) raw data, Mean (SD)” value ([3]; Day 14, 10 mg) was 2534.7 (4451.2) pg/ml. The “PTX3 least square means % baseline±SEM” value ([3]; day 14, 0.3 mg once daily) was 51.8±68.6 % baseline, the “PTX3 least square means % baseline±SEM” value ([3]; day 14, 3 mg once daily) was 74.2±53.1 % baseline and the “PTX3 least square means % baseline±SEM” value ([3]; day 14, 10 mg once daily) was 67.0±56.1 % baseline. The “IL-13 difference in least square means % baseline (95% CI)” value ([4]; 10 mg vs placebo, ANCOVA) was −7.6 (−30.4–15.2) % baseline, the “IL-13 raw data, Mean (SD)” value ([4]; Day 14, 0.3 mg) was 1219.4 (155.7) pg/ml and the “IL-13 raw data, Mean (SD)” value ([4]; Day 14, 3 mg) was 1476.6 (140.99) pg/ml. For the same compound, the “IL-13 raw data, Mean (SD)” value ([4]; Day 14, 10 mg) was 1358.8 (149.34) pg/ml, the “IL-13 least square means % baseline±SEM” value ([4]; day 14, 0.3 mg once daily) was 87.4±8.8 % baseline and the “IL-13 least square means % baseline±SEM” value ([4]; day 14, 3 mg once daily) was 100.4±9.5 % baseline. For the same compound, the “IL-13 least square means % baseline±SEM” value ([4]; day 14, 10 mg once daily) was 97.6±8.8 % baseline, the “MMP-8 difference in least square means % baseline (95% CI)” value ([5]; 10 mg vs placebo, ANCOVA) was −125.4 (−271.3–20.5) % baseline and the “MMP-8 raw data, Mean (SD)” value ([5]; Day 14, 0.3 mg) was 1911.5 (1577.82) pg/ml. For the same compound, the “MMP-8 raw data, Mean (SD)” value ([5]; Day 14, 3 mg) was 2263.3 (2428.78) pg/ml, the “MMP-8 raw data, Mean (SD)” value ([5]; Day 14, 10 mg) was 44436.7 (97465.67) pg/ml and the “MMP-8 least square means % baseline±SEM” value ([5]; day 14, 0.3 mg once daily) was 138.0±52.8 % baseline. The “MMP-8 least square means % baseline±SEM” value ([5]; day 14, 3 mg once daily) was 115.2±52.7 % baseline and the “MMP-8 least square means % baseline±SEM” value ([5]; day 14, 10 mg once daily) was 51.5±56.1 % baseline.
